According to patent US10501479B2, “Benzenesulfonyl-asymmetric ureas and medical uses thereof” (HELSINN HEALTHCARE SA, priority 2016, dated 2019):
Where “and” joins values, the source holds several entries; their conditions need not be identical. Identical values can stand only once. Like-named read-outs stand apart in the source and are kept apart here.

What was measured:
[1] = tested on: male C57BL/6J mice; test: Food intake test in mouse (GHSR1a inverse agonists), cumulative food intake at 1, 2, 4, 8 and 24 hrs; type: in vivo
Protocol: Evaluation of Inverse Agonist on Food Intake Test in Mouse:
Male C57BL/6J mice, 18-22 g body weight, were fasted overnight (16 h before compound administration) and placed in a regular light dark cycle (6:00-18:00 light/18:00-6:00 dark). After 1 wk acclimation, animals were sorted into two groups (n=6 each, 2 per cage) based on body weight. Animals in group one were be treated with vehicle and animals in group 2 were treated with the test agent (n=6 for each group). The cumulative food intake was evaluated at 1, 2, 4, 8 and 24 hrs after drug or vehicle treatment. Food intake was measured by subtracting uneaten food from the initial premeasured food.
Food Intake Study—Evaluation of GHSR1a inverse agonists on Food Intake Test in Mouse:
Twelve male C57BL/6J mice, weighing 18-22 g each, were fasted overnight (16 h before compound administration) and placed in a regular light dark cycle (6:00-18:00 light/18:00-6:00 dark). After 1 week acclimation, animals were sorted into two groups (n=6 each, 2 per cage) based on body weight. Animals in group one were treated with carrier minus the test compound. (control group) and animals in group 2 were treated with carrier with the test compound (experimental group). The cumulative food intake was evaluated at 1, 2, 4, 8 and 24 hrs after experimental or control treatment. Food intake was measured by subtracting uneaten food from the initial premeasured food.

[2] = target: T1, GHSR-1a (HEK293/GHSR1a cell line) (Homo sapiens, UniProt Q92847); test: Ghrelin antagonist potency (IC50) with calcium FLIPR assay, ghrelin 10 nM; type: cell-based
T1 construct: expressed in transfected cells; host or cells: HEK293/GHSR1a cell line
T1 sequence (Q92847 whole entry): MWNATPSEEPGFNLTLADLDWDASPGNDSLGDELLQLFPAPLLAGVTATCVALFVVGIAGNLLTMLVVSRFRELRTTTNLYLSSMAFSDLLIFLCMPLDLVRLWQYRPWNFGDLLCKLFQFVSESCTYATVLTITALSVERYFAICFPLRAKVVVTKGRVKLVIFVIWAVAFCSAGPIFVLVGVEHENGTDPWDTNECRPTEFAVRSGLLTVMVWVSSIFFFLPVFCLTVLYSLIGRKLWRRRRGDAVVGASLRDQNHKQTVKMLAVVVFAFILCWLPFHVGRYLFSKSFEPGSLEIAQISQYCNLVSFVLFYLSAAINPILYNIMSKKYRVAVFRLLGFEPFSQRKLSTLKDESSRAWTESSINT
Summary of the method: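 Calcium flux was followed 2 min by FLIPR in dye-loaded HEK293/GHSR1a cells. For antagonist IC50, compound and ghrelin (10 nM) were co-added at t=20 sec and inhibition of the ghrelin signal fitted; for agonist EC50, compound alone was added at t=20 sec and dose-response fitted.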

[3] = target: T2, recombinant human ghrelin receptor (HEK293/GRLN) (Homo sapiens, UniProt Q92847); test: Ghrelin inverse agonist potency (EC50) with IP-1 (IP-One HTRF) assay; type: cell-based; conditions: IP-1 assay
T2 construct: expressed in transfected cells
T2 sequence (Q92847 whole entry): as above
Summary of the method: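 IP-1 accumulation was measured by HTRF (IP1-d2/Tb-cryptate, 620/665 nm read after 1 hour at room temperature) following 1 hour of compound treatment at 37° C. Cells were HEK293 stably expressing human ghrelin receptor, plated a day earlier on Matrigel. Inverse agonist potency was reported as EC50.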

[4] = Metabolic stability in human liver microsomes; type: in vitro ADME
Summary of the method: (§1)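 Parent compound was measured by LC-MS/MS at time zero and after 10, 30 and 90 min at 37 °C. Incubations used liver microsomes from four species (human, dog, rat, mouse) with an NADPH regenerating system in pH 7.4 potassium phosphate buffer. Each timepoint was stopped with cold quench solution.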

[5] = Metabolic stability in mouse liver microsomes; type: in vitro ADME
Summary of the method: as §1

[6] = Animal PK study in mouse via i.v., p.o. and s.c. administration; type: in vivo
Summary of the method: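 Plasma drug levels were measured by LC-MS/MS after acetonitrile precipitation, with blood drawn up to 24 h post-dose (from 0.083 h i.v./s.c., 0.25 h oral) in mice or rats. Animals received one dose by gavage in DMSO/methylcellulose, or by tail-vein or subcutaneous injection in DMSO/HP-β-cyclodextrin.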

[7] = Plasma protein binding (PPB), mouse; type: in vitro ADME
[8] = Plasma protein binding (PPB), human; type: in vitro ADME; conditions: read-out: PPB (H)
[9] = Metabolic stability in dog liver microsomes; type: in vitro ADME
Protocol: (§2) Metabolic Stability Study
(§3) The metabolic stability of compounds in human, dog, rat and mouse liver microsomes was performed according the experimental conditions reported below:
(§4) • a) Prepare the following 5 stock solutions: • 1. Test compound stock solutions: dilute 10 mM solution of dextromethorphan (Dtr) in DMSO, 10 mM solution of diphenhydramine (DPA) in DMSO, 10 mM solution of omeprazole (Ome) in DMSO, 10 mM solution of verapamil (Ver) in DMSO, and 10 mM of an inverse agonist compound in DMSO to 0.25 mM solution each with acetonitrile/water (70/30). • 2. Buffer: 100 mM potassium phosphate Buffer (PBS) at pH 7.4 • 3. Liver microsomes (20 mg/ml): Thaw in 37° C. water bath quickly • 4. 2000 μL: of NADPH regenerating system (1.3 mM). Place this system on ice before use:
(§5) • 5. […] The test compound concentration in the wells, measured by LC-MS/MS, represents the concentration at time=0. • f) To determine the test compound concentration when t≠0, pre-incubate the NADPH regenerating system and the incubation plate containing the remaining 320 μL of incubation mixture (microsomes protein and test compound) for 5 minutes at 37° C. • g) Start the incubation reaction by adding 80 μL NADPH regenerating system to each well containing the remaining 320 μL incubation mixture. • h) After 10 min., 30 min., and 90 min. of incubation at 37° C., transfer 100 μL of the incubation mixture (microsomes protein, test compound, and NADPH) into the wells of a stop plate pre-filled with 300 μL of the cold quench solution. Shake well. • i) Centrifuge the stop plate at 5000×g for 10 minutes. Collect and dilute the supernatant 3 times with distilled water. Sample and analyze the test compound concentration for all the wells by LC-MS/MS. Animal PK Studies via i.v. (intravenous), p.o. (orally) and s.c. (subcutaneous) administrations

[10] = Metabolic stability in rat liver microsomes; type: in vitro ADME
Protocol: as §2, §3, §4, §5

[11] = Plasma protein binding (PPB), mouse; type: in vitro ADME; remark: listed apart in the source
[12] = Plasma protein binding (PPB), human; type: in vitro ADME; conditions: read-out: PPB (H) (converted)
[13] = Plasma protein binding (PPB), rat; type: in vitro ADME; conditions: read-out: PPB (R) (converted)
[14] = ghrelin antagonist potency, read-out: IC50 (Activity)
[15] = inverse agonist potency, read-out: EC50 (Activity)

Row | SMILES | Food Intake Study ([1]; 30 mg/kg po fasted mice) | IC50 [2, 14] | EC50 [3, 15] | Metabolic Stability Study H = human [4] | Metabolic Stability Study M = mouse [5] | PK F [6] | PK CLiv ([6]; i.v.) | PK Vdiv ([6]; i.v.) | PK t1/2iv ([6]; i.v.) | PK CLpo ([6]; p.o.) | PK Vdpo ([6]; p.o.) | PK t1/2po ([6]; p.o.) | fraction unbound [7] | fraction unbound [8] | Metabolic Stability Study D = dog [9] | Metabolic Stability Study R = rat [10] | further results
1 | C[C@H](NC(=O)Nc1ccc(S(=O)(=O)Cc2ccc(CC(C)(C)N)cc2)cc1)c1cccc(Cl)c1Cl [H0969, (S)-1-(4-((4-(2-amino-2-methylpropyl)benzyl)sulfonyl)phenyl)-3-(1-(2,3-dichlorophenyl)ethyl)urea] | 30 mg/kg po fasted - inh | 53 nM | 18.9 nM | 19.5 µL/min/mg | 74.4 µL/min/mg | 1.3% | 7.67 mL/min/kg | 1.97 L/kg | 2.96 h | 450.2 mL/min/kg | 168.2 L/kg | 4.32 h | – | – | – | – | –
2 | CNC(C)(C)Cc1ccc(NS(=O)(=O)c2ccc(NC(=O)N[C@@H](C)c3ccc(-c4cnccn4)c(Cl)c3Cl)cc2)cc1 [H0941, (S)-4-(3-(1-(2,3-dichloro-4-(pyrazin-2-yl)phenyl)ethyl)ureido)-N-(4-(2-methyl-2-(methylamino)propyl)phenyl) benzenesulfonamide] | – | 7.7 nM | 2.8 nM | 47.7 µL/min/mg | 66.2 µL/min/mg | – | – | – | – | – | – | – | 0.0005 | 0.0002 | 48.2 µL/min/mg | 36.2 µL/min/mg | –
3 | Cl.O=C(NCc1cccc(Cl)c1Cl)Nc1ccc(S(=O)(=O)Cc2ccc3c(c2)CNC3)cc1 [H1057, 1-(2,3-dichlorobenzyl)-3-(4-((isoindolin-5-ylmethyl)sulfonyl)phenyl)urea] | – | 19.3 nM | 6.9 nM | 12.6 µL/min/mg | 10.8 µL/min/mg | 1.6% | 26.2 mL/min/kg | 2.18 L/kg | 0.96 h | 1371 mL/min/kg | 368.9 L/kg | 3.11 h | 0.005 | 0.005 | – | – | –
4 | COc1ccc([C@H](C)NC(=O)Nc2ccc(S(=O)(=O)Nc3ccc4c(c3)CCN(C)C4)cc2)c(Cl)c1Cl [H1017] | – | 72 nM | 9.8 nM | 11.5 µL/min/mg | 30.5 µL/min/mg | – | – | – | – | – | – | – | 0.0003 | 0.001 | – | – | –
5 | CC(c1ccccc1)N(C)C(=O)Nc1ccc(S(=O)(=O)Cc2ccc3c(c2)CN(C)C3)cc1 (stereo not drawn) [H1381, 1-methyl-3-(4-(((2-methylisoindolin-5-yl)methyl)sulfonyl)phenyl)-1-(1-phenylethyl)urea] | – | – | – | 60 µL/min/mg | 68.1 µL/min/mg | 20.64% | – | – | – | – | – | – | – | – | 88.7 µL/min/mg | – | fraction unbound [11]: 0.0854; IC50 ([2]; HEK293/GHSR1a, ghrelin 10 nM, read-out: Activity IC50 (ghrelin antagonist potency)): 480 nM and 257 nM; EC50 ([3]; HEK293/GRLN, read-out: Activity EC50 (ghrelin inverse agonist potency)): 22.1 nM and 33.1 nM; PK CL p.o. ([6]; p.o.): 295 mL/min/kg; PK Vd p.o. ([6]; p.o.): 42.87 L/kg; Vd ([6]; plasma, iv, 5 mg/kg): 3.1 L/kg; clearance ([6]; plasma, iv, 5 mg/kg, i.v., read-out: PK CL i.v.): 63.8 mL/min/kg; half-life ([6]; plasma, po, 10 mg/kg, p.o., read-out: PK t1/2 p.o.): 1.68 h; fraction unbound [12]: 0.0906
6 | CC(C)(N)Cc1ccc(NS(=O)(=O)c2ccc(NC(=O)NCc3cccc(Cl)c3Cl)cc2)cc1 [H0968, N-(4-(2-amino-2-methylpropyl)phenyl)-4-(3-(2,3-dichlorobenzyl)ureido) benzenesulfonamide] | 30 mg/kg po fasted - inh | 44 nM | 5.7 nM | 32.5 µL/min/mg | 27.4 µL/min/mg | – | – | – | – | – | – | – | – | – | – | – | –
7 | C[C@H](NC(=O)Nc1ccc(S(=O)(=O)Nc2ccc(CC(C)(C)N(C)C)cc2)cc1)c1cccc(Cl)c1Cl [H0967, (S)-4-(3-(1-(2,3-dichlorophenyl)ethyl)ureido)-N-(4-(2-(dimethylamino)-2-methylpropyl)phenyl) benzenesulfonamide] | 30 mg/kg po fasted - inh 5 mg/kg sc fasted - inh | 16 nM | 4.7 nM | 38.2 µL/min/mg | 58 µL/min/mg | 0.2% | 39 mL/min/kg | 8.62 L/kg | 2.56 h | 11620 mL/min/kg | 2326.2 L/kg | 2.31 h | – | – | – | – | Food Intake Study ([1]; 5 mg/kg sc fasted mice): 30 mg/kg po fasted - inh 5 mg/kg sc fasted - inh
8 | C[C@H](NC(=O)Nc1ccc(S(=O)(=O)Cc2ccc3c(c2)CNC3)cc1)c1ccccc1 [H1215, (S)-1-(4-((isoindolin-5-ylmethyl)sulfonyl)phenyl)-3-(1-phenylethyl)urea] | – | 12.4 nM | 4.6 nM | 21 µL/min/mg | 13.7 µL/min/mg | – | – | – | – | – | – | – | 0.093 | 0.097 | 16.6 µL/min/mg | 18.5 µL/min/mg | fraction unbound [13]: 0.065
9 | C[C@H](NC(=O)Nc1ccc(S(=O)(=O)Nc2ccc(CC(C)(C)N)cc2)cc1)c1ccc(-c2cnccn2)c(Cl)c1Cl [H0906, (S)-N-(4-(2-amino-2-methylpropyl)phenyl)-4-(3-(1-(2,3-dichloro-4-(pyrazin-2-yl)phenyl)ethyl)ureido) benzenesulfonamide] | – | 18.9 nM | 6.8 nM | 19.9 µL/min/mg | 24.4 µL/min/mg | 0.1% | 3 mL/min/kg | 0.27 L/kg | 1.03 h | 3991.2 mL/min/kg | 479.77 L/kg | 1.39 h | 0.0004 | 0.0016 | – | 13.6 µL/min/mg | –
